From patent US11324858B2, “Biomaterials for enhanced implant-host integration” (Massachusetts Institute of Technology, priority 2012, dated 2022)
Entries after “also recorded” stand apart in the source; their conditions may differ.

Tests used:
hepatic aggregates = experiment: Diffusion of DAPI through ligated constructs after i.p. injection; assay type: in vivo, mouse; settings: post i.p. injection, EC Cord Ligated procedure
Protocol: FIGS. 16A-16B show the diffusion of small-molecule DAPI through ligated constructs. Constructs containing both hepatic aggregates and cords were implanted using procedures identical to those of the “EC Cord Ligated” control. Following implantation, the animals were injected i.p. with DAPI using the same volume and concentration typically used for luciferin administration. […] By 20 min post injection, DAPI-positive hepatic aggregates were identified throughout the constructs as shown by FIG. 16B.
To explore whether this vascularization strategy has potential to enable applications such as human tissue replacement or humanized mouse models, it was tested whether coimplantation of EC cords can support primary human hepatocytes. […] To test whether enhanced hepatic function in animals with EC cords was the result of direct paracrine signaling between adjacent EC cords and hepatocytes or of improved access to a blood supply, the parametrial fat pad was severed upstream of the constructs immediately after implantation to reduce blood supply (“EC Cord Ligated”; FIG. 4E). Bioluminescence imaging was performed 20 min after luciferin injection at each time point, which was confirmed to be adequate time for diffusionbased permeation of the construct in ligated control tissues by DAPI (a small molecule similar in size to luciferin; FIG. 16).

HUVECs and 10T1/2s = experiment: Cord formation/contraction of HUVEC and 10T1/2 cells in collagen within PDMS microchannels, with contractility inhibitors; assay type: cell-based, human, mouse; settings: treated immediately after seeding; 20 μM blebbistatin or 25 μM Y27632
Protocol: To test whether patterned endothelial cell (EC) cords induce vivo vessel formation in vivo, EC cords embedded in a fibrin matrix were implanted into the intraperitoneal space of nude mice (schematic, FIG. 1A). The cords were first prepared by seeding HUVECs and 10T1/2 cells suspended within collagen pre-polymer into a PDMS template and allowed to contract and remodel the collagen over a period of 4 hours. During this maturation period, the cells contracted against the matrix and each other, which caused the cords to shrink in diameter to approximately 50% of their original size (FIG. 1B). The HUVECs and 10T1/2 cells were mobile within the cords and also underwent some sorting during this time, with many of the 10T1/2 localizing to the periphery of the cords (FIG. 1C). […] After allowing the cords to contract, they were embedded into a larger fibrin gel (FIG. 1E) and prepared for implantation by attaching the samples to a polypropylene surgical mesh. The cords were implanted adjacent to a fat pad into athymic mice and resected at various time points. Tissues resected after 7 days, sectioned and stained with H&E indicated the presence of blood in areas where EC cords were initially present (FIG. 1F).
Micropatterning of Endothelial cell cords. EC cords were micropatterned as previously described (2). […]

Structure (SMILES)	time to permeate construct and stain hepatic aggregates (hepatic aggregates) [min]	cord formation / cord contraction under contractility inhibitor (HUVECs and 10T1/2s)
N=C(N)c1ccc(-c2cc3ccc(C(=N)N)cc3[nH]2)cc1 [DAPI]	≤ 20	–
Cc1ccc2c(c1)C(=O)C1(O)CCN(c3ccccc3)C1=N2 (stereo not drawn) [blebbistatin]	–	prevented their contraction and elongation of the cells along the collagen; also recorded: failed to form cords
C[C@@H](N)[C@H]1CC[C@H](C(=O)Nc2ccncc2)CC1 [Y27632]	–	failed to form cords
